Data as given in PubChem BioAssay AID328 (DTP/NCI, 2004).
“And” between values parts separate entries of the source, which are not always exact repeats. Equal entries are not always repeated. Toxic doses and inconclusive results are not listed. Rule for the calls: active = survival T/C of 150% or more; inactive = T/C below 125% in these data.

Test system: BDF1 mice, P388 leukemia ip, median survival T/C
Assay: NCI In Vivo Anticancer Drug Screen. Data for tumor model P388 Leukemia (intraperitoneal) in B6D2F1 (BDF1) mice
Details: endpoint: median survival time, higher = longer survival
Summary of the method: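 Survival ratio, drug arm over vehicle arm, in mice with a transplanted tumour.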

[1] = dose: 100.0 mg/kg/injection, schedule: Q04DX003 (ip), vehicle: saline with Tween-80
[2] = dose: 400.0 mg/kg/injection, schedule: Q04DX003 (ip), vehicle: saline with Tween-80
[3] = dose: 200.0 mg/kg/injection, schedule: Q01DX009 (ip), vehicle: saline with Tween-80
[4] = dose: 400.0 mg/kg/injection, schedule: Q01DX009 (ip), vehicle: saline with Tween-80

Measured: T/C

CCCCCCCCCCCCCC(=O)O[C@@H]1[C@@H](C)[C@@]2(O)[C@@H](C=C(CO)C[C@]3(O)C(=O)C(C)=C[C@@H]23)[C@@H]2C(C)(C)[C@]12OC(C)=O
inactive: dose: 0.03 mg/kg/injection, schedule: Q01DX009 (ip), vehicle: Klucel (hydroxypropylcellulose) (HPC) 110 % of control | dose: 0.03 mg/kg/injection, schedule: Q01DX009 (ip), vehicle: saline + alcohol 108 % of control | dose: 0.06 mg/kg/injection, schedule: Q01DX009 (ip), vehicle: Klucel (hydroxypropylcellulose) (HPC) 100 % of control | dose: 0.06 mg/kg/injection, schedule: Q01DX009 (ip), vehicle: saline + alcohol 110 % of control | dose: 0.12 mg/kg/injection, schedule: Q01DX009 (ip), vehicle: Klucel (hydroxypropylcellulose) (HPC) 110 % of control | dose: 0.12 mg/kg/injection, schedule: Q01DX009 (ip), vehicle: saline + alcohol 117 % of control | dose: 0.25 mg/kg/injection, schedule: Q01DX009 (ip), vehicle: Klucel (hydroxypropylcellulose) (HPC) 92 % of control | dose: 0.25 mg/kg/injection, schedule: Q01DX009 (ip), vehicle: saline + alcohol 116 % of control | dose: 0.5 mg/kg/injection, schedule: Q01DX009 (ip), vehicle: Klucel (hydroxypropylcellulose) (HPC) 100 % of control | dose: 0.5 mg/kg/injection, schedule: Q01DX009 (ip), vehicle: saline + alcohol 104 % of control | dose: 1.0 mg/kg/injection, schedule: Q01DX009 (ip), vehicle: Klucel (hydroxypropylcellulose) (HPC) 108 % of control | dose: 3.1 micrograms/kg/injection, schedule: Q01DX009 (ip), vehicle: gum acacia 97 % of control and 108 % of control | dose: 3.1 micrograms/kg/injection, schedule: Q01DX009 (ip), vehicle: saline with Tween-80 105 % of control | dose: 6.2 micrograms/kg/injection, schedule: Q01DX009 (ip), vehicle: gum acacia 94 % of control | dose: 6.2 micrograms/kg/injection, schedule: Q01DX009 (ip), vehicle: saline with Tween-80 109 % of control | dose: 12.5 micrograms/kg/injection, schedule: Q01DX009 (ip), vehicle: gum acacia 106 % of control | dose: 12.5 micrograms/kg/injection, schedule: Q01DX009 (ip), vehicle: saline with Tween-80 104 % of control | dose: 25.0 micrograms/kg/injection, schedule: Q01DX009 (ip), vehicle: gum acacia 103 % of control and 118 % of control | dose: 25.0 micrograms/kg/injection, schedule: Q01DX009 (ip), vehicle: saline with Tween-80 109 % of control | dose: 50.0 micrograms/kg/injection, schedule: Q01DX009 (ip), vehicle: gum acacia 97 % of control and 108 % of control and 116 % of control | dose: 50.0 micrograms/kg/injection, schedule: Q01DX009 (ip), vehicle: saline with Tween-80 114 % of control | dose: 100.0 micrograms/kg/injection, schedule: Q01DX009 (ip), vehicle: gum acacia 106 % of control and 108 % of control | dose: 100.0 micrograms/kg/injection, schedule: Q01DX009 (ip), vehicle: saline with Tween-80 113 % of control | dose: 200.0 micrograms/kg/injection, schedule: Q01DX009 (ip), vehicle: gum acacia 101 % of control and 103 % of control and 113 % of control | dose: 200.0 micrograms/kg/injection, schedule: Q01DX009 (ip), vehicle: saline with Tween-80 97 % of control | dose: 400.0 micrograms/kg/injection, schedule: Q01DX009 (ip), vehicle: gum acacia 103 % of control | dose: 400.0 micrograms/kg/injection, schedule: Q01DX009 (ip), vehicle: saline with Tween-80 103 % of control | dose: 800.0 micrograms/kg/injection, schedule: Q01DX009 (ip), vehicle: gum acacia 100 % of control and 106 % of control

O=C1/C(=C/c2ccccc2)Cc2cccc(O)c21
inactive: dose: 37.5 mg/kg/injection, schedule: Q01DX001 (ip), vehicle: saline with Tween-80 100 % of control | dose: 75.0 mg/kg/injection, schedule: Q01DX001 (ip), vehicle: saline with Tween-80 100 % of control | dose: 150.0 mg/kg/injection, schedule: Q01DX001 (ip), vehicle: saline with Tween-80 100 % of control

COC(=O)c1ccccc1NC(=O)CCl
inactive: dose: 50.0 mg/kg/injection, schedule: Q04DX003 (ip), vehicle: saline with Tween-80 100 % of control | [1] 87 % of control

O=C1CC(c2ccc([N+](=O)[O-])cc2)=Nc2ccccc2N1
inactive: [1] 109 % of control | dose: 200.0 mg/kg/injection, schedule: Q04DX003 (ip), vehicle: saline with Tween-80 104 % of control | [2] 114 % of control

CC[C@H](CC[C@@H](C)[C@H]1CC[C@H]2[C@@H]3CC[C@H]4C[C@@H](O)CC[C@]4(C)[C@H]3CC[C@]12C)C(C)C
inactive: [1] 100 % of control | [3] 95 % of control | [4] 100 % of control | [2] 86 % of control

Clc1ccc(-c2n[se]c(-c3ccc(Cl)cc3)n2)cc1
inactive: dose: 0.19 mg/kg/injection, schedule: Q01DX009 (ip), vehicle: saline with Tween-80 98 % of control | dose: 0.39 mg/kg/injection, schedule: Q01DX009 (ip), vehicle: saline with Tween-80 101 % of control | dose: 0.78 mg/kg/injection, schedule: Q01DX009 (ip), vehicle: saline with Tween-80 95 % of control | dose: 1.56 mg/kg/injection, schedule: Q01DX009 (ip), vehicle: saline with Tween-80 96 % of control

CC(C)Oc1ccc2c(c1)Sc1ccc(Cl)cc1N2
inactive: dose: 100.0 mg/kg/injection, schedule: Q01DX009 (ip), vehicle: saline with Tween-80 104 % of control | [3] 104 % of control | [4] 104 % of control

O=N[O-].O=N[O-].O=N[O-].[Co+3].[NH-]CC[N-]CC[NH-]
inactive: dose: 50.0 mg/kg/injection, schedule: Q01DX009 (ip), vehicle: saline with Tween-80 111 % of control

SCc1ccccn1
inactive: dose: 62.5 mg/kg/injection, schedule: Q01DX010 (ip), vehicle: carboxymethylcellulose (CMC) 110 % of control | dose: 125.0 mg/kg/injection, schedule: Q01DX010 (ip), vehicle: carboxymethylcellulose (CMC) 110 % of control | dose: 250.0 mg/kg/injection, schedule: Q01DX010 (ip), vehicle: carboxymethylcellulose (CMC) 120 % of control

C[S+](C)CCCNC(=O)c1csc(-c2csc(CCNC(=O)c3ccccc3)n2)n1
inactive: dose: 8.0 mg/kg/injection, schedule: Q01DX009 (ip), vehicle: saline 90 % of control | dose: 16.0 mg/kg/injection, schedule: Q01DX009 (ip), vehicle: saline 100 % of control | dose: 32.0 mg/kg/injection, schedule: Q01DX009 (ip), vehicle: saline 95 % of control

O=C(O)C1=NN(c2cc(Cl)c(S(=O)(=O)O)cc2Cl)C(=O)C1
inactive: dose: 100.0 mg/kg/injection, schedule: Q01DX009 (ip), vehicle: Klucel (hydroxypropylcellulose) (HPC) 100 % of control | dose: 100.0 mg/kg/injection, schedule: Q01DX009 (ip), vehicle: saline 110 % of control | dose: 100.0 mg/kg/injection, schedule: Q04DX003 (ip), vehicle: saline 95 % of control | dose: 175.0 mg/kg/injection, schedule: Q01DX009 (ip), vehicle: other 100 % of control | dose: 200.0 mg/kg/injection, schedule: Q01DX009 (ip), vehicle: Klucel (hydroxypropylcellulose) (HPC) 108 % of control | dose: 200.0 mg/kg/injection, schedule: Q01DX009 (ip), vehicle: saline 120 % of control | dose: 200.0 mg/kg/injection, schedule: Q04DX003 (ip), vehicle: saline 95 % of control | dose: 265.0 mg/kg/injection, schedule: Q01DX009 (ip), vehicle: other 88 % of control | dose: 400.0 mg/kg/injection, schedule: Q01DX009 (ip), vehicle: Klucel (hydroxypropylcellulose) (HPC) 104 % of control | dose: 400.0 mg/kg/injection, schedule: Q01DX009 (ip), vehicle: other 100 % of control | dose: 400.0 mg/kg/injection, schedule: Q04DX003 (ip), vehicle: saline 118 % of control | dose: 600.0 mg/kg/injection, schedule: Q01DX009 (ip), vehicle: other 88 % of control

CCCCNc1ccc([N+](=O)[O-])cc1[N+](=O)[O-]
inactive: dose: 50.0 mg/kg/injection, schedule: Q01DX009 (ip), vehicle: other 95 % of control | dose: 100.0 mg/kg/injection, schedule: Q01DX009 (ip), vehicle: other 101 % of control | dose: 200.0 mg/kg/injection, schedule: Q01DX009 (ip), vehicle: other 105 % of control
